One assay concerns HeLa cells. Kind of assay: DNA homologous recombination repair assay (pHPRT-DRGFP / I-SceI). Format: cell-based, human. To be noted: for GFP cell (%): chromosomal breaks generated by I-SceI endonuclease expression, 48 h. An excerpt:
ATR function is also linked to DNA repair via its coupled targets (Sorensen C S, et al. Nat Cell Biol 2005). To examine the effect of benzopyran-4-one derivatives treatment on DNA repair, we performed a homologous recombination repair (HRR) assay in HeLa cells. DNA constructs of the recombination substrate pHPRT-DRGFP, in which the I-SceI site lies within 1 copy of 2 mutated tandem repeated GFP genes, and the I-SceI endonuclease expression vector pCBASceI, were originally constructed by Dr. M. Jasin (25). In brief, we generated a stable pHPRT-DRGFP construct in HeLa cells, and evaluated the chromosomal breaks generated by I-SceI endonuclease expression. Six hours after pCBASceI was delivered into the cells, complete medium with or without Protoapigenone (I-1) or compound II-1 was replaced onto the cells. Forty-eight hours after delivery, the efficiency of chromosomal HRR was obtained as the percentage of GFP-positive cells, which was assessed by flow cytometry.

In assay [1] the test system is ATM-mediated Chk2 phosphorylation. Briefly: Immunoblot of DNA damage-induced Chk2 phosphorylation / ATM autophosphorylation. Format: cell-based, human. The settings on record: for UV-induced or H2O2-induced Chk2 phosphorylation: HEK293T cells with siRNAs against ATM and DNA-PKcs. An excerpt:
We hypothesized that genes with functions associated with DNA damage checkpoints and/or DNA repair might be targeted by benzopyran-4-one derivatives. To test this hypothesis, we assessed the effects of benzopyran-4-one derivatives on DDR induced by H2O2. […] In response to DNA double-strand breaks (DSBs), FANCD2 is known to be monoubiquitinated on K561 (FANCD2-Ub) in an ATR-dependent manner to stimulate repair (Andreassen P R, et al. Genes Dev 2004).
To elucidate the specificity of the benzopyran-4-one derivatives inhibition on ATR-mediated signaling, we compared the change between cells treated with benzopyran-4-one derivatives or the ATM-specific inhibitor KU55933 before the induction of DDR.
MDA-MB-231 (breast adenocarcinoma; ATCC HTB-26, BCRC 60425) and A549 (lung adenocarcinoma; ATCC CCL-185, BCRC 60074) human cell lines were purchased from Bioresource Collection and Research Center (BCRC, Hsinchu, Taiwan), and were authenticated by American Type Culture Collection (ATCC, Manassas, Va.). U2OS (osteosarcoma), HeLa (cervical adenocarcinoma), and HEK 293T (embryonic kidney cells) human cell lines were provided by Dr. Sheau-Yann Shieh (Institute of Molecular Biology, Academia Sinica, Taipei, Taiwan). Cells were maintained in Dulbecco's modified Eagle's medium (DMEM, Sigma-Aldrich) supplemented with 10% fetal bovine serum (FBS) (Gibco). […] For UV irradiation treatment, the cells were irradiated for 10 J/m^2 by a cross-linker (UVP) 1 h prior to analysis.
Cell lysate preparations, gel electrophoresis, and immunoblotting were performed as previously described (23). The binding of primary antibodies were detected by horseradish peroxidase-coupled secondary antibodies (Jackson ImmunoResearch) followed by enhanced chemiluminescence (ECL) (Millipore). The images of non-saturated bands were captured using a luminescent image analyzer (LAS-4000 mini; Fujifilm). The antibodies used in this study are listed in supplementary materials.
In general terms: In western blotting, separated proteins are transferred to a membrane and probed.

Another assay relates to DNA replication. Briefly: EdU incorporation assay of DNA replication. Format: cell-based. The protocol: DNA replication was measured using a Click-it EdU assay kit, which is based on incorporation of the thymidine analogue 5-ethynyl-2'-deoxyuridine (EdU) into DNA during replication (Invitrogen). Then, 10 μM EdU was added to the cell culture medium 30 min before the cells were harvested and fixed in 4% paraformaldehyde. After cycloaddition, EdU was detected with Alexa Fluor 647 using click reaction catalyzed by Cu (II), and the DNA content was stained by CellCycle 405-blue. […] An FITC Annexin V apoptosis detection kit was used to characterize the phenotype of cell death based on PI and Annexin V double staining (BD Pharmingen, San Diego, Calif.). Fluorescence-labeled cells were subsequently analyzed by the BD LSR II flow cytometer with a suitable selection of excitation and emission wavelengths. The percentages of different fluorescent cells were analyzed using WinMDI Ver. 2.9.

For the next assay, the system named is Ad-GFP virus replication. Kind of assay: Ad-GFP virus replication (supernatant re-infection of HEK293A cells). It is filed as cell-based, adenovirus. The protocol: Ideally, the Ad-GFP virus is replicated within HEK293A cells. To test the effect of benzopyran-4-one derivative compounds on Ad-GFP virus replication, the same virus infection and compound treatment are performed as shown in FIG. 26. At the end of a 24-hour experiment, we collected the Ad-GFP virus from each well of Ad-GFP infected HEK293A using two freeze-thaw cycles and then collected the supernatants. An equal amount of supernatants from each well were then infected with the HEK293A cells, which were newly-prepared 1 day before infection in a 96-well plate at a density of 5×10^4 per well. Finally, the GFP cell images were obtained using the inverted fluorescence microscope and quantified by analyzing the MFI using flow cytometry for each well of cells.

[2] abbreviates: A594 cells, 0.1 mM H2O2 for 2 h.
The mark [3] stands for this setting: post-treatment 2 hours after infection, re-infection.
The mark [4] stands for this setting: pre-treatment, 24 hours after re-infection.

Each structure is given as a SMILES string.

As to `O=C1C=CC(O)(c2cc(=O)c3c(O)cc(O)cc3o2)C=C1` [Compound I-1, Protoapigenone], the “GFP cell (%)” value in the assay on HeLa cells (2.0 μM) came out at 0.807 ± 0.0403%; in the assay on HeLa cells (4.0 μM) it was 0.213 ± 0.0105%. In the assay on HeLa cells (low concentrations), the “Repair of chromosomal breaks by HRR, in words” value is reported as “dose-dependently inhibited”. The ATM autophosphorylation result in assay [1] (setting [2]) was “not affected”. The Chk2 phosphorylation entry in assay [1] (setting [2]) is on record as “promote”. Moreover, the “UV-induced or H2O2-induced Chk2 phosphorylation” value in assay [1] is reported as “not altered”. Moreover, the “Percentage of EdU incorporation compared with control group” value with DNA replication (4 μM) was “efficiently reduce”. Moreover, the results for the “MFI of GFP protein” value in the assay with Ad-GFP virus replication (setting [3]) and with Ad-GFP virus replication (setting [4]) were “significant decreased” and “significantly decreased”, respectively. Further, the entries for the “Number of GFP cells” value with Ad-GFP virus replication (setting [3]) and in the assay on Ad-GFP virus replication (setting [4]) were “significant decreased” and “significantly decreased”, respectively.
On to `O=C1C=CC(O)(c2cc(=O)c3c(ccc4ccccc43)o2)C=C1` [Compound II-1, 3-(1-hydroxy-4-oxo-cyclohexa-2,5-dienyl)-1H-benzo[f]chromen-1-one], for which the “Dose lower than that of Protoapigenone (I-1) for similar HRR effects” value with HeLa cells was found to be 10 fold. Further, the “GFP cell (%)” value in the assay with HeLa cells (0.2 μM) is 0.703 ± 0.0304%; in the assay on HeLa cells (0.4 μM) it was 0.17%. For the same compound, the “UV-induced or H2O2-induced Chk2 phosphorylation” value in assay [1] was “increased”. Besides, in the assay on DNA replication (0.4 μM), the “Percentage of EdU incorporation compared with control group” value was “efficiently reduce”. Further, the figures for the “MFI of GFP protein” value with Ad-GFP virus replication (setting [3]) and in the assay on Ad-GFP virus replication (setting [4]) were “significant decreased” and “significantly decreased”, respectively. For the same compound, the results for the “Number of GFP cells” value with Ad-GFP virus replication (setting [3]) and with Ad-GFP virus replication (setting [4]) were “significant decreased” and “significantly decreased”, respectively.

Values taken from patent US11413267B2, “Methods and compositions for inhibition of ATR and FANCD2 activation” (priority 2012, dated 2022).
